Measured values from patent US9675823B2 (Colgate-Palmolive Company, priority 2012, dated 2017).

Experiments:
[1] = pH of the mixture or of the acidified cysteine solution; settings: 0.05 g of cysteine in 1 mL of 0.0001 M HCl
[2] = Precipitation time upon mixing the cysteine solution and the ZLC solution; format: physicochemical

SMILES	pH of solution 1 [1]	precipitation upon mixing ([2]; 0.05 g amino acid in 1 mL 0.0001M HCl, 4.95 g ZLC stock solution with no glycerol)	effect on precipitation time of ZLC ([2]; sulfur-containing amino acids)
N[C@@H](CS)C(=O)O [cysteine]	5.13		
CSCC[C@H](N)C(=O)O [methionine]		No precipitation occurred	no effect
